“Also recorded” adds a separate entry of the source.
How the values were obtained:
[1] = tested on: DNFB-induced ear inflammation; assay: Mouse acute cutaneous anaphylaxis model; format: in vivo; conditions: topical
Protocol: Mouse acute cutaneous anaphylaxis model. 6-8 week old CD1 mice (University of British Columbia Animal Facility, Vancouver, BC) were sensitized to the hapten DNP by cutaneous application of 25 μL of 0.5% dinitroflourobenzene (DNFB) (Sigma, Oakville, Ont) in acetone to the shaved abdomen of mice for two consecutive days. In the AQX-016A experiments shown in FIG. 2F, 20 μCi of tritiated thymidine [3H]-Tdr (GE Healthcare, Piscataway, N.J.) was injected EP one week after the first DNFB application. [3H]-Tdr labels rapidly dividing cells of the mouse, including neutrophils (21). […] The resulting inflammatory cell infiltration was quantitated by taking a 6mm diameter punch from the ear 1 hr later for dissolution in SOLVABLE™ (Perkin Elmer-Packard, Woodbridge, Ont) and liquid scintillation counting as described (21). The ability of test substances to inhibit mast cell degranulation was then determined by calculating the ratio of [3H]-Tdr in the test (right) ear vs the control (left) ear as described (21). […]
In the later AQX-MN100 experiments, shown in FIG. 3E, the mice were sensitized as above with DNFB. […] Optical density readings at 450 nm were taken over 10 min at 30 s intervals. MPO activity was calculated as described (22) and expressed as Units per mg of protein per mL of lysate. […]

[2] = target: T1, C2 domain deleted (ΔC2) SHIP1 enzyme (Mus musculus, UniProt Q9ES52, DEL725-860/G861A/K862A/M863A); assay: In vitro SHIP enzyme assay, C2 domain deleted SHIP1; format: biochemical; conditions: FIG. 4B, FIG. 10
T1 construct: Full length, wild-type SHIP1 enzyme (wt) or SHIP1 enzyme in which the PH or C2 domains were deleted; made in house; 293T cells are stated only for the wild-type enzyme
T1 sequence (Q9ES52 with tags, fused parts or gaps DEL725-860/G861A/K862A/M863A limits assumed): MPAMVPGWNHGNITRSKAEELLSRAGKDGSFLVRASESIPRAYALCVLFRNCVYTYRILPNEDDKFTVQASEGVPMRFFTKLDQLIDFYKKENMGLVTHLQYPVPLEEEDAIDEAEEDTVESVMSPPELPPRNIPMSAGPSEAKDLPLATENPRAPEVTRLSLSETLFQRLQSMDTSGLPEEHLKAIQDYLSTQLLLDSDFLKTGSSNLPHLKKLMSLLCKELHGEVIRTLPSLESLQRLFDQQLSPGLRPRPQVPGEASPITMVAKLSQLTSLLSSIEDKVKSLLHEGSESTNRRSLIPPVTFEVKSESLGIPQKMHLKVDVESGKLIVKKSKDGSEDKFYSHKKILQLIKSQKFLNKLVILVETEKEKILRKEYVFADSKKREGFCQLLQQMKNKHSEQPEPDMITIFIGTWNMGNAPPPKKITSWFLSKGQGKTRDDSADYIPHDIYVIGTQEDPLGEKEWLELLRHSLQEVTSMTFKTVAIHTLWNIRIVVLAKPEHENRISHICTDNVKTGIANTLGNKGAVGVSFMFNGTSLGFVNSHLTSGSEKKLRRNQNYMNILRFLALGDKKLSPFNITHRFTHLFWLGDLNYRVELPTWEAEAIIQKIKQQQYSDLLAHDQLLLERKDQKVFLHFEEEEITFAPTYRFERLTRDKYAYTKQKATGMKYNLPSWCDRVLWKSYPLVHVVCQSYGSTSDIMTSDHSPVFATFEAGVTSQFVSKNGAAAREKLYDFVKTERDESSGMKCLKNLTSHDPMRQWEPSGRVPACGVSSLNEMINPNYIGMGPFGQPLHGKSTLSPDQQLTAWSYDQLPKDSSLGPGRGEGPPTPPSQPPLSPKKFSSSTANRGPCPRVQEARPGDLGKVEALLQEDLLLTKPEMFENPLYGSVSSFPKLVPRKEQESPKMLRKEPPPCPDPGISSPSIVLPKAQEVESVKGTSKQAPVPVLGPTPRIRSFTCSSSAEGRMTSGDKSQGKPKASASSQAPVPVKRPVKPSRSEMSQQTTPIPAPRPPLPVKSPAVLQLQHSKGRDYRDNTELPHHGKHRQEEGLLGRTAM
From the text: The mouse SHIP1 ΔC2 domain deletion mutant was generated by a standard PCR-based methodology using the primer pairs listed above, which in addition to being complementary to sequences immediately upstream and downstream of the C2 domain (amino acid residues 725 to 863), introduces a NotI restriction site. The PCR-products were digested with ClaI and NotI, and NotI and XbaI for the upstream and downstream fragments, respectively. Products were then resolved and imaged on a 1% agarose gel containing ethidium bromide and the appropriate sized fragments excised and purified using a column gel extraction kit (Qiagen, Mississauga, ON). In parallel, pME18S plasmid containing the cDNA for N-terminal His6-tagged SHIP1 was digested with ClaI and NotI, resolved and purified as before. Upstream fragment, downstream fragment and digested pME18S-SHIP plasmid were ligated to yield a plasmid coding for SHIP1 with the C2 domain deleted. An N-terminal His6 C2 domain was also generated by PCR using the primer pair indicated above and the resulting product inserted into the pET28C bacterial expression vector using EcoRI and NdeI restriction sites.
In vitro SHIP enzyme assay. The SHIP enzyme assay was performed in 96-well microtitre plates with 10 ng of enzyme/well in a total volume of 25 μL of 20 mM Tris HCl, pH 7.5 and 10 mM MgCl2. SHIP1 enzyme was incubated with test extracts (provided in DMSO) or vehicle for 15 mM at 23° C. before the addition of 100 μM inositol-1,3,4,5-tetrakisphosphate (Echelon Biosciences Inc, Salt Lake City, Utah). The reaction was allowed to proceed for 20 min at 37° C. and the amount of inorganic phosphate released assessed by the addition of Malachite Green reagent followed by an absorbance measurement at 650 nm (15). SHIP2 enzyme was purchased from Echelon Biosciences (Salt Lake City, Utah) and an equivalent amount of inositol phosphatase activity was used in the in vitro enzyme assay. Enzyme data are expressed as the mean of triplicates+/−SEM. Experiments were performed at least 3 times.

activation of SHIP1 with C2 domain deleted ([2]; listed as PI(3,4)P2) | Compound | allergen-induced inflammation (inflammatory cell recruitment to ear, [3H]-Tdr) ([1]; 30 min prior to DNFB, vs vehicle control-treated ear) | activation of SHIP1 with C2 domain deleted [2] | myeloperoxidase (MPO) levels in ears of allergen-challenged mice ([1]; P-value <0.02 vs vehicle)
 | Cc1cc(O)c(O)c2c1[C@]1(C)CC[C@H]3C(C)(C)CCC[C@]3(C)[C@H]1C2 [AQX-016A] | dramatically inhibited allergen-induced inflammation |  | 
abrogates ability to be activated | phosphatidylinositol-3,4-bisphosphate [PI-3,4-P2, reference compound] |  | impaired the ability of SHIP1 to be activated | 
 | Cc1cc(O)cc2c1[C@]1(C)CC[C@H]3C(C)(C)CCC[C@]3(C)[C@H]1C2 [AQX-MN100] |  | impaired the ability of SHIP1 to be activated; also recorded: abrogates the ability of SHIP1 to be activated | reduced the levels of the inflammatory cell (neutrophil) specific myeloperoxidase enzyme; also recorded: inhibits DNFB-induced MPO in sensitized mice
